Measured values from patent US20170362210A1, “ANTI-ESTROGENIC COMPOUNDS” (PFIZER INC., priority 2015, published 2017).
Like-named read-outs stand apart in the source and are kept apart here. Marks after values point to notes of the source that are not given here.

Tests used:
[1] = tested on: estrogen-responsive reporter gene (ERE-tk109-Luc) in MCF-7 cells; test: Inhibition of E2-induced transcription, ERE-tk109-Luc reporter gene in MCF-7 cells; format: cell-based, human; settings: 100 pM 17β-estradiol (E2), 18-22 hours, read-out: IC50, inhibition of E2-induced transcription in breast cells
Method: Representative compounds were tested for their inhibitory activity of estrogen according to the assay methods described in Hodges-Gallagher, L., Valentine, C. V., El Bader, S. and Kushner, P. J. (2007) “Histone Deacetylase Inhibitors Enhance the Efficacy of Hormonal Therapy Agents on Breast Cancer Cells and Blocks Anti-estrogen-Driven Uterine Cell Proliferation” Breast Cancer Res Treat, November; 105(3):297-309. Specifically, an estrogen-responsive reporter gene (ERE-tk109-Luc) was transiently transfected into MCF-7 cells and treated with anti-estrogens in triplicate in the presence of 100 pM 17β-estradiol (E2) for 18-22 hours. Luciferase activity was normalized to activity of E2 alone and IC50's were calculated using the least squares fit method.

ERα = target: T1, ERα (Homo sapiens, UniProt P03372); test: ERα expression in MCF-7 cell lysates (immunoblot); format: cell-based; settings: MCF-7 cells, 100 nM compound, serum-free medium, 24 hours, immunoblot band intensity
T1 construct: ERα expression was detected in MCF-7 cell lysates treated with 100 nM antiestrogens in serum-free medium for 24 hours; endogenous in cells; host or cells: MCF-7
T1 sequence (P03372 1-595): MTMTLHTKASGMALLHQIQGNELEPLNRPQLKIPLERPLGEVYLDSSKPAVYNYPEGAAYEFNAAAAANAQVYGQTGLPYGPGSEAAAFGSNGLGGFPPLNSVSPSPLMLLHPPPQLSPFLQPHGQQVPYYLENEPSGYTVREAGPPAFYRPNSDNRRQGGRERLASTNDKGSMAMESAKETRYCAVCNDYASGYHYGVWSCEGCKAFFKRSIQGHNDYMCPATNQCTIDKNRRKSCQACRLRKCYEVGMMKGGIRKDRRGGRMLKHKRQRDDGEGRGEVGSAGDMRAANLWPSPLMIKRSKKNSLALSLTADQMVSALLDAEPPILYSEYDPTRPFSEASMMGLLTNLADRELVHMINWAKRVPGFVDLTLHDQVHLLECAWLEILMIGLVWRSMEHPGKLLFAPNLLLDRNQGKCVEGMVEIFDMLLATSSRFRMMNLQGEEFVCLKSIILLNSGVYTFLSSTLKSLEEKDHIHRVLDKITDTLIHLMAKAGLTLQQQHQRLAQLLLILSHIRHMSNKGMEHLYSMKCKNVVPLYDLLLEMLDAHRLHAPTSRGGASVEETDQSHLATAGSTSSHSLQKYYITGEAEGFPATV
Method: ERα expression was detected in MCF-7 cell lysates treated with 100 nM antiestrogens in serum-free medium for 24 hours and immunoblotted with an antibody specific to ERα.
Band intensity was normalized relative to vehicle for each individual experiment and listed in Table 3 (Relative change ERα levels (% vehicle)).

[2] = tested on: AP activity in ECC-1 cells; test: Alkaline phosphatase (AP) assay in ECC-1 uterine cells, induction of AP activity; format: cell-based, human; settings: 3 days, normalized to 500 pM E2, maximum activity observed regardless of dose
Method: (§1) Method for performing the alkaline phosphatase (AP) assay. ECC-1 cells (American Type Culture Collection, Manassas, Va.) were maintained in RPMI medium plus 10% fetal bovine serum at 37° C. At the beginning of the assay trypsinized cells were resuspended in RPMI medium plus 5% charcoal dextran stripped serum (CDSS, (Hyclone, Logan, Utah)) and plated at a density of 25-50 k cells per well into a 96-well plate for at least 6 hours. Representative compounds were diluted in serum-free medium and added 1:1 to plated cells in replicate wells (2.5% CDSS final). Plates were incubated for 3 days at 37° C. and subsequently frozen at −80° C. to lyse cells after removing the medium. Thawed plates were incubated with a chromogenic substrate of AP, p-nitrophenyl phosphate (Invitrogen, Grand Island, N.Y.), for 40 minutes at 40° C. Absorbances were read at 405 nm using a plate spectrophotometer. AP activity was normalized to 500 pM 17β-estradiol (E2), reported as the maximum activity observed for each individual experiment, regardless of dose.

[3] = tested on: AP activity in ECC-1 cells; test: Alkaline phosphatase (AP) assay in ECC-1 cells co-treated with 500 pM E2; format: cell-based, human; settings: 3 days
Method: as §1
AP activity was assayed as in Example 28 but cells were co-treated with 500 pM E2.

[4] = tested on: MCF-7 breast cancer cells; test: Inhibition of E2-stimulated proliferation of MCF-7 breast cancer cells; format: cell-based, human; settings: 100 pM E2, hormone-depleted medium, 6-8 days
Method: Proliferation of MCF-7 breast cancer cells was measured using a fluorescent DNA binding dye 6-8 days after treatment in triplicate with representative compounds in the presence of 100 pM E2 in hormone-depleted medium. IC50's were calculated from individual experiments as in Example 25.

[5] = Homo sapiens, MCF7, MCF-7 cells

Compound	IC50 ([1]; MCF-7 cells)	Relative change ERα levels (% vehicle) (ERα)	IC50 ([4]; MCF-7 cells)	IC50 [1, 5]	IC50 [4, 5]	Induction of AP activity in uterine cells (% E2) [2]	AP activity (% E2), cells co-treated with 500 pM E2 [3]
CCCN1CC(Oc2ccc(C3Oc4cc(O)ccc4C(C)=C3c3ccccc3C(C)C)cc2)C1 (stereo not shown) [Compound 119, 3-(2-isopropylphenyl)-4-methyl-2-(4-((1-propylazetidin-3-yl)oxy)phenyl)-2H-chromen-7-ol]		36 % veh		15 nM	33 nM	44 % E2	18 % E2
CCCN1CC(Cc2ccc(C3Oc4cc(O)ccc4C(C)=C3c3ccc(O)cc3)cc2F)C1 (single isomer, unassigned) [Compound 112, 2-(3-fluoro-4-((1-propylazetidin-3-yl)methyl)phenyl)-3-(4-hydroxyphenyl)-4-methyl-2H-chromen-7-ol]	2 nM	35 % veh	7 nM			5* % E2	4 % E2
CCCN1CC(Oc2ccc(C3Oc4cc(O)ccc4C(C)=C3c3ccccc3)cc2)C1 (single isomer, unassigned) [Compound 118, 4-methyl-3-phenyl-2-(4-((1-propylazetidin-3-yl)oxy)phenyl)-2H-chromen-7-ol]	254 nM	55 % veh	132 nM			104 % E2	16 % E2
CCCN1CC(Oc2ccc(C3Oc4cc(O)ccc4C(C)=C3c3ccccc3)cc2)C1 (single isomer, unassigned) [Compound 117, 4-methyl-3-phenyl-2-(4-((1-propylazetidin-3-yl)oxy)phenyl)-2H-chromen-7-ol]	4 nM	45 % veh	33 nM			16 % E2	8 % E2
CCCN1CC(Cc2ccc(C3Oc4cc(O)ccc4C(C)=C3c3ccc(O)cc3)cc2F)C1 (single isomer, unassigned) [Compound 113, 2-(3-fluoro-4-((1-propylazetidin-3-yl)methyl)phenyl)-3-(4-hydroxyphenyl)-4-methyl-2H-chromen-7-ol]	13 nM	38 % veh	24 nM			17 % E2	15 % E2
CCCN1CC(Oc2ccc(C3Oc4cc(O)ccc4C(C)=C3c3ccccc3Cl)cc2)C1 (stereo not shown) [Compound 120, 3-(2-chlorophenyl)-4-methyl-2-(4-((1-propylazetidin-3-yl)oxy)phenyl)-2H-chromen-7-ol]		61 % veh		8 nM	10 nM	12 % E2	14 % E2

The next lines start with results.

IC50 ([1]; MCF-7 cells)	Relative change ERα levels (% vehicle) (ERα)	IC50 ([4]; MCF-7 cells)	IC50 [1, 5]	IC50 [4, 5]	Compound	Induction of AP activity in uterine cells (% E2) [2]	AP activity (% E2), cells co-treated with 500 pM E2 [3]
4 nM	39 % veh	10 nM			CCCN1CC(Oc2ccc(C3Oc4cc(O)ccc4C(C)=C3c3ccc(O)cc3)cc2)C1 (single isomer, unassigned) [Compound 105, 3-(4-hydroxyphenyl)-4-methyl-2-(4-((1-propylazetidin-3-yl)oxy)phenyl)-2H-chromen-7-ol]	4 % E2	4 % E2
165 nM	82 % veh	> 300 nM			CC1=C(c2ccc(O)cc2)C(c2ccc(OC3CN(CCC(F)(F)F)C3)cc2)Oc2cc(O)ccc21 (single isomer, unassigned) [Compound 111, 3-(4-hydroxyphenyl)-4-methyl-2-(4-((1-(3,3,3-trifluoropropyl)azetidin-3-yl)oxy)phenyl)-2H-chromen-7-ol]	32 % E2	61 % E2
14 nM	104 % veh			216 nM	CC1=C(c2ccc(O)cc2)C(c2ccc(OC3CN(CCC(F)(F)F)C3)cc2)Oc2cc(O)ccc21 (single isomer, unassigned) [Compound 110, 3-(4-hydroxyphenyl)-4-methyl-2-(4-((1-(3,3,3-trifluoropropyl)azetidin-3-yl)oxy)phenyl)-2H-chromen-7-ol]	35 % E2	36 % E2
27 nM	55 % veh	59 nM			CCCN1CC(Cc2ccc(C3Oc4cc(O)ccc4C(C)=C3c3ccc(O)cc3)cc2)C1 (single isomer, unassigned) [Compound 103, 3-(4-hydroxyphenyl)-4-methyl-2-(4-((1-propylazetidin-3-yl)methyl)phenyl)-2H-chromen-7-ol]	23 % E2	36 % E2
2 nM	50 % veh	6 nM			CCCN1CC(Cc2ccc(C3Oc4cc(O)ccc4C(C)=C3c3ccc(O)cc3)cc2)C1 (single isomer, unassigned) [Compound 102, 3-(4-hydroxyphenyl)-4-methyl-2-(4-((1-propylazetidin-3-yl)methyl)phenyl)-2H-chromen-7-ol]	9 % E2	8 % E2
	44 % veh		2 nM	6 nM	CCCN1CC(Oc2ccc(C3Oc4cc(O)ccc4C(C)=C3c3ccc(O)cc3)cc2)C1 (stereo not shown) [Compound 104, 3-(4-hydroxyphenyl)-4-methyl-2-(4-((1-propylazetidin-3-yl)oxy)phenyl)-2H-chromen-7-ol]	5 % E2	4 % E2
54 nM	53 % veh	114 nM			CCCN1CC(Oc2ccc(C3Oc4cc(O)ccc4C(C)=C3c3ccc(O)cc3)cc2)C1 (single isomer, unassigned) [Compound 106, 3-(4-hydroxyphenyl)-4-methyl-2-(4-((1-propylazetidin-3-yl)oxy)phenyl)-2H-chromen-7-ol]	17 % E2	44 % E2
	51 % veh		3 nM	7 nM	CCCN1CC(Cc2ccc(C3Oc4cc(O)ccc4C(C)=C3c3ccc(O)cc3)cc2)C1 (stereo not shown) [Compound 101, 3-(4-hydroxyphenyl)-4-methyl-2-(4-((1-propylazetidin-3-yl)methyl)phenyl)-2H-chromen-7-ol]	9 % E2	8 % E2
